Measurements reported in patent US20050208496A1, “Methods of testing for bronchial asthma or chronic obstructive pulmonary disease” (Genox Research, Inc., priority 2002, published 2005).

Tested on: mouse counterpart genes
Experiment: Mouse GeneChip (MG-U74A to MG-U74C) analysis of lung and trachea of the OVA antigen-exposed bronchial hypersensitivity model, S-Sal group versus S-OVA group
Assay type: in vivo
Conditions: S-Sal group vs S-OVA group

Substance: ovalbumin [OVA antigen, ovalbumin antigen used for sensitization and inhalation to induce bronchial hypersensitivity in mice]
- Fold Change, interferon gamma inducible protein 30 (mouse probe 97444_at) (3rd, chip A, P/A call A): 1.8
- Fold Change, matrix metalloproteinase 7 (mouse probe 92917_at) (3rd, chip A, P/A call A): 1.6
- Fold Change, matrix metalloproteinase 7 (mouse probe 162318_r_at) (3rd, chip A, P/A call A): 1.3
- Fold Change, met proto-oncogene (mouse probe 100309_at) (3rd, chip A, P/A call A): 1.9
- Fold Change, phosphotidylinositol transfer protein, beta (mouse probe 102697_at) (3rd, chip A, P/A call A): 0.5
- Fold Change, A kinase anchor protein 2 (mouse probe 101435_at) (3rd, chip A, P/A call P): 1
- Fold Change, DNA segment. Chr 16. ERATO Doi 269, expressed (mouse probe 97821_at) (3rd, chip A, P/A call P): 1
- Fold Change, DNA segment. Chr 16. ERATO Doi 269, expressed (mouse probe 97823_g_at) (3rd, chip A, P/A call P): 1.1
- Fold Change, a disintegrin and metalloprotease domain 8 (mouse probe 103024_at) (3rd, chip A, P/A call P): 4.6
- Fold Change, arachidonate 15-lipoxygenase (mouse probe 98758_at) (3rd, chip A, P/A call P): 8
- Fold Change, cholesterol 25-hydroxylase (mouse probe 104509_at) (3rd, chip A, P/A call P): 1.9
- Fold Change, claudin 4 (mouse probe 101410_at) (3rd, chip A, P/A call P): 1
- Fold Change, decay accelerating factor 1 (mouse probe 103617_at) (3rd, chip A, P/A call P): 1.3
- Fold Change, interferon-stimulated protein (20 kDa) (mouse probe 103432_at) (3rd, chip A, P/A call P): 1
- Fold Change, interleukin 1 receptor-like 1 (mouse probe 98500_at) (3rd, chip A, P/A call P): 2.4
- Fold Change, low density lipoprotein receptor-related protein associated protein 1 (mouse probe 100086_at) (3rd, chip A, P/A call P): 0.833
- Fold Change, low density lipoprotein receptor-related protein associated protein 1 (mouse probe 161988_f_at) (3rd, chip A, P/A call P): 1.1
- Fold Change, membrane-associated protein 17 (mouse probe 96935_at) (3rd, chip A, P/A call P): 1.1
- Fold Change, polycystic kidney disease 2 (mouse probe 100951_at) (3rd, chip A, P/A call P): 0.667
- Fold Change, histocompatibility 2, Q region locus 7 (mouse probe 98438_f_at) (3rd, chip A, P/A call P, counterpart of human probe 37420_i_at): 1.2
- Fold Change, histocompatibility 2, Q region locus 7 (mouse probe 98438_f_at) (3rd, chip A, P/A call P, counterpart of human probe 37421_f_at): 1.2
- Fold Change, A kinase (PRKA) anchor protein 10 (mouse probe 163162_at) (3rd, chip B, P/A call A): 0.526
- Fold Change, ESTs Putative Ortholog of ISG-54K gene (mouse probe 164273_at) (3rd, chip B, P/A call A): 1.5
- Fold Change, ESTs, Highly similar to AF116721 8 PRO0907 [H. sapiens] (mouse probe 114151_at) (3rd, chip B, P/A call A): 1.4
- Fold Change, decay accelerating factor 1 (mouse probe 164905_r_at) (3rd, chip B, P/A call A): 1.1
- Fold Change, interferon gamma inducible protein 30 (mouse probe 164423_at) (3rd, chip B, P/A call A): 4.1
- Fold Change, secreted end transmembrane 1 (mouse probe 115133_at) (3rd, chip B, P/A call A): 0.625
- Fold Change, viral hemorrhagic septicemia virus(VHSV) induced gene 1 (mouse probe 109385_at) (3rd, chip B, P/A call A): 0.286
- Fold Change, decay accelerating factor 1 (mouse probe 107626_at) (3rd, chip B, P/A call P): 1.9
- Fold Change, deleted in bladder cancer chromosome region candidate 1 (human) Putative Ortholog (mouse probe 166806_at) (3rd, chip C, P/A call P): 1
- Fold Change, interferon-induced protein with tetratricopeptide repeats 1 (mouse probe 168299_f_at) (3rd, chip C, P/A call P): 1.2
- Fold Change, 2′-5′ oligoadenylate synthetase 1A (mouse Probe ID 102717_at) (chip A, 1st): 1.6
- Fold Change, DnaJ (Hsp40) homolog, subfamily A, member 1 (mouse Probe ID 97261_at) (chip A, 1st): 0.476
- Fold Change, SAM domain and HD domain, 1 (mouse Probe ID 103080_at) (chip A, 1st): 1.3
- Fold Change, cadherin 6 (mouse Probe ID 101730_at) (chip A, 1st): 0.833
- Fold Change, cyclin D3 (mouse Probe ID 160545_at) (chip A, 1st): 0.625
- Fold Change, growth arrest and DNA-damage-inducible 45 gamma (mouse Probe ID 101979_at) (chip A, 1st): 2.3
- Fold Change, heparan sulfate (glucosamine) 3-)-sulfotransferase 1 (mouse Probe ID 102410_at) (chip A, 1st): 1.4
- Fold Change, hydroxysteroid (17-beta) dehydrogenase 2 (mouse Probe ID 101891_at) (chip A, 1st): 1.8
- Fold Change, intercellular adhesion molecule (mouse Probe ID 96752_at) (chip A, 1st): 1.3
- Fold Change, intercellular adhesion molecule (mouse Probe ID 1011414_at) (chip A, 1st): 1
- Fold Change, interferon-induced protein with tetratricopeptide repeats 1 (mouse Probe ID 100981_at) (chip A, 1st): 1.8
- Fold Change, interferon-stimulated protein (15 kDa) (mouse Probe ID 98822_at) (chip A, 1st): 4.3
- Fold Change, interleukin 13 receptor, alpha 2 (mouse Probe ID 95344_at) (chip A, 1st): 1.4
- Fold Change, nitric oxide synthase 2, inducible, macrophage (mouse Probe ID 104420_at) (chip A, 1st): 2.3
- Fold Change, osteoblast specific factor 2 (fasciclin I-like) (mouse Probe ID 92593_at) (chip A, 1st): 1.2
- Fold Change, proteosome (prosome, macropain) subunit, beta type 9 (mouse Probe ID 93085_at) (chip A, 1st): 2.1
- Fold Change, sialyltransferase 1 (beta-galactoside alpha-2,6-sialyltransferase) (mouse Probe ID 94431_at) (chip A, 1st): 0.385
- Fold Change, small inducible cytokine B subfamily (Cys-X-Cys), member 10 (mouse Probe ID 93858_at) (chip A, 1st): 1.3
- Fold Change, thioredoxin reductase 1 (mouse Probe ID 99985_at) (chip A, 1st): 1.2
- Fold Change, thioredoxin reductase 1 (mouse Probe ID 161043_r_at) (chip A, 1st): 1.4
- Fold Change, thrombospondin 1 (mouse Probe ID 160469_at) (chip A, 1st): 1.1
- Fold Change, transglutaminase 2, C polypeptide (mouse Probe ID 93352_at) (chip A, 1st): 1
- Fold Change, 2′-5′ oligoadenylate synthetase 1A (mouse Probe ID 102717_at) (chip A, 2nd): 1.7
- Fold Change, SAM domain and HD domain, 1 (mouse Probe ID 103080_at) (chip A, 2nd): 1.3
- Fold Change, cadherin 6 (mouse Probe ID 101730_at) (chip A, 2nd): 1.1
- Fold Change, cyclin D3 (mouse Probe ID 160545_at) (chip A, 2nd): 1.1
- Fold Change, fructose bisphosphatase 1 (mouse Probe ID 96918_at) (chip A, 2nd): 2.3
- Fold Change, growth arrest and DNA-damage-inducible 45 gamma (mouse Probe ID 101979_at) (chip A, 2nd): 5.4
- Fold Change, heparan sulfate (glucosamine) 3-)-sulfotransferase 1 (mouse Probe ID 102410_at) (chip A, 2nd): 0.4
- Fold Change, hydroxysteroid (17-beta) dehydrogenase 2 (mouse Probe ID 101891_at) (chip A, 2nd): 0.667
- Fold Change, intercellular adhesion molecule (mouse Probe ID 96752_at) (chip A, 2nd): 1.2
- Fold Change, intercellular adhesion molecule (mouse Probe ID 1011414_at) (chip A, 2nd): 0.357
- Fold Change, interferon-induced protein with tetratricopeptide repeats 1 (mouse Probe ID 100981_at) (chip A, 2nd): 1.9
- Fold Change, interferon-stimulated protein (15 kDa) (mouse Probe ID 98822_at) (chip A, 2nd): 4.2
- Fold Change, interleukin 13 receptor, alpha 2 (mouse Probe ID 95344_at) (chip A, 2nd): 1.5
- Fold Change, nitric oxide synthase 2, inducible, macrophage (mouse Probe ID 104420_at) (chip A, 2nd): 1.1
- Fold Change, proteosome (prosome, macropain) subunit, beta type 9 (mouse Probe ID 93085_at) (chip A, 2nd): 1.6
- Fold Change, sialyltransferase 1 (beta-galactoside alpha-2,6-sialyltransferase) (mouse Probe ID 94431_at) (chip A, 2nd): 1.3
- Fold Change, small inducible cytokine B subfamily (Cys-X-Cys), member 10 (mouse Probe ID 93858_at) (chip A, 2nd): 1.7
- Fold Change, thioredoxin reductase 1 (mouse Probe ID 161043_r_at) (chip A, 2nd): 1.8
- Fold Change, thioredoxin reductase 1 (mouse Probe ID 161284_r_at) (chip A, 2nd): 1.3
- Fold Change, thrombospondin 1 (mouse Probe ID 160469_at) (chip A, 2nd): 1.7
- Fold Change, transforming growth factor, beta 2 (mouse Probe ID 93300_at) (chip A, 2nd): 0.833
- Fold Change, transglutaminase 2, C polypeptide (mouse Probe ID 93352_at) (chip A, 2nd): 1.3
- Fold Change, 2′-5′ oligoadenylate synthetase 1A (mouse Probe ID 102717_at) (chip A, 3rd): 2.2
- Fold Change, DnaJ (Hsp40) homolog, subfamily A, member 1 (mouse Probe ID 97261_at) (chip A, 3rd): 0.833
- Fold Change, cyclin D3 (mouse Probe ID 160545_at) (chip A, 3rd): 0.833
- Fold Change, fructose bisphosphatase 1 (mouse Probe ID 96918_at) (chip A, 3rd): 1.7
- Fold Change, growth arrest and DNA-damage-inducible 45 gamma (mouse Probe ID 101979_at) (chip A, 3rd): 1.9
- Fold Change, heparan sulfate (glucosamine) 3-)-sulfotransferase 1 (mouse Probe ID 102410_at) (chip A, 3rd): 1
- Fold Change, intercellular adhesion molecule (mouse Probe ID 1011414_at) (chip A, 3rd): 1
- Fold Change, interferon-induced protein with tetratricopeptide repeats 1 (mouse Probe ID 100981_at) (chip A, 3rd): 1.6
- Fold Change, interferon-stimulated protein (15 kDa) (mouse Probe ID 98822_at) (chip A, 3rd): 2.2
- Fold Change, interleukin 13 receptor, alpha 2 (mouse Probe ID 95344_at) (chip A, 3rd): 1.2
- Fold Change, osteoblast specific factor 2 (fasciclin I-like) (mouse Probe ID 92593_at) (chip A, 3rd): 1
- Fold Change, proteosome (prosome, macropain) subunit, beta type 9 (mouse Probe ID 93085_at) (chip A, 3rd): 1.1
- Fold Change, sialyltransferase 1 (beta-galactoside alpha-2,6-sialyltransferase) (mouse Probe ID 94431_at) (chip A, 3rd): 1.6
- Fold Change, small inducible cytokine B subfamily (Cys-X-Cys), member 10 (mouse Probe ID 93858_at) (chip A, 3rd): 2
- Fold Change, thioredoxin reductase 1 (mouse Probe ID 99985_at) (chip A, 3rd): 1
- Fold Change, thioredoxin reductase 1 (mouse Probe ID 161043_r_at) (chip A, 3rd): 0.588
- Fold Change, thrombospondin 1 (mouse Probe ID 160469_at) (chip A, 3rd): 1.5
- Fold Change, transforming growth factor, beta 2 (mouse Probe ID 93300_at) (chip A, 3rd): 0.5
- Fold Change, transglutaminase 2, C polypeptide (mouse Probe ID 93352_at) (chip A, 3rd): 0.833
- Fold Change, RIKEN cDNA 2610017M01 gene (mouse Probe ID 105606_at) (chip B, 1st): 1.5
- Fold Change, RIKEN cDNA 2610017M01 gene (mouse Probe ID 163053_at) (chip B, 1st): 1
